# Laboratory results taken from ChEMBL document CHEMBL3044672, “N9- and N7-(Chloromethyl Phenymethyl)Chloropurine Derivatives from , '-Dichloroxylenes: Synthesis and Anticancer Activity” (2005).
# Columns and labels:
# Assay type in all cases: functional
# OVCAR-4 = assay: Cytotoxicity against Homo sapiens (human) OVCAR4 cells after 48 hr by sulforhodamine B assay; settings: OVCAR-4, 48 h
# IGROV-1 = assay: Cytotoxicity against Homo sapiens (human) IGROV1 cells after 48 hr by sulforhodamine B assay; settings: IGROV-1, 48 h
# OVCAR-3 = assay: Cytotoxicity against Homo sapiens (human) OVCAR3 cells after 48 hr by sulforhodamine B assay; settings: OVCAR-3, 48 h
# UACC-62 = assay: Cytotoxicity against Homo sapiens (human) UACC62 cells after 48 hr by sulforhodamine B assay; settings: UACC-62, 48 h
# UACC-257 = assay: Cytotoxicity against Homo sapiens (human) UACC257 cells after 48 hr by sulforhodamine B assay; settings: UACC-257, 48 h
# SK-MEL-5 = assay: Cytotoxicity against Homo sapiens (human) SK-MEL-5 cells after 48 hr by sulforhodamine B assay; settings: SK-MEL-5, 48 h
# SK-MEL-2 = assay: Cytotoxicity against Homo sapiens (human) SK-MEL-2 cells after 48 hr by sulforhodamine B assay; settings: SK-MEL-2, 48 h
# U-251 = assay: Cytotoxicity against Homo sapiens (human) U251 cells after 48 hr by sulforhodamine B assay; settings: U-251, 48 h
# SF-539 = assay: Cytotoxicity against Homo sapiens (human) SF539 cells after 48 hr by sulforhodamine B assay; settings: SF-539, 48 h
# MDA-MB-435 = assay: Cytotoxicity against Homo sapiens (human) MDA-MB-435 cells after 48 hr by sulforhodamine B assay; settings: MDA-MB-435, 48 h
# [1] = Cytotoxicity against Homo sapiens (human) NCI-ADR-RES cells after 48 hr by sulforhodamine B assay
# MDA-MB-231 = assay: Cytotoxicity against Homo sapiens (human) MDA-MB-231 cells after 48 hr by sulforhodamine B assay; settings: MDA-MB-231, 48 h
# PC-3 = assay: Cytotoxicity against Homo sapiens (human) PC3 cells after 48 hr by sulforhodamine B assay; settings: PC-3, 48 h
# SN12C = assay: Cytotoxicity against Homo sapiens (human) SN12C cells after 48 hr by sulforhodamine B assay
# CAKI-1 = assay: Cytotoxicity against Homo sapiens (human) Caki1 cells after 48 hr by sulforhodamine B assay; settings: CAKI-1, 48 h; for CC50: read-out: LC50 (the source's name)
# KM12 = assay: Cytotoxicity against Homo sapiens (human) KM12 cells after 48 hr by sulforhodamine B assay; settings: KM12, 48 h; for CC50: read-out: LC50 (the source's name)
# HT-29 = assay: Cytotoxicity against Homo sapiens (human) HT-29 cells after 48 hr by sulforhodamine B assay; settings: HT-29, 48 h; for CC50: read-out: LC50 (the source's name)
# HCT-116 = assay: Cytotoxicity against Homo sapiens (human) HCT116 cells after 48 hr by sulforhodamine B assay; settings: HCT-116, 48 h; for CC50: read-out: LC50 (the source's name)
# HCC 2998 = assay: Cytotoxicity against Homo sapiens (human) HCC2998 cells after 48 hr by sulforhodamine B assay; settings: HCC 2998, 48 h; for CC50: read-out: LC50 (the source's name)
# COLO 205 = assay: Cytotoxicity against Homo sapiens (human) COLO205 cells after 48 hr by sulforhodamine B assay; settings: COLO 205, 48 h; for CC50: read-out: LC50 (the source's name)
# NCI-H522 = assay: Cytotoxicity against Homo sapiens (human) NCI-H522 cells after 48 hr by sulforhodamine B assay; settings: NCI-H522, 48 h; for CC50: read-out: LC50 (the source's name)
# NCI-H322M = assay: Cytotoxicity against Homo sapiens (human) NCI-H322M cells after 48 hr by sulforhodamine B assay; settings: for CC50: read-out: LC50 (the source's name)
# NCI-H23 = assay: Cytotoxicity against Homo sapiens (human) NCI-H23 cells after 48 hr by sulforhodamine B assay; settings: NCI-H23, 48 h; for CC50: read-out: LC50 (the source's name)
# NCI-H226 = assay: Cytotoxicity against Homo sapiens (human) NCI-H226 cells after 48 hr by sulforhodamine B assay; settings: NCI-H226, 48 h; for CC50: read-out: LC50 (the source's name)
# HOP-62 = assay: Cytotoxicity against Homo sapiens (human) HOP62 cells after 48 hr by sulforhodamine B assay; settings: HOP-62, 48 h; for CC50: read-out: LC50 (the source's name)
# EKVX = assay: Cytotoxicity against Homo sapiens (human) EKVX cells after 48 hr by sulforhodamine B assay; settings: for CC50: read-out: LC50 (the source's name)
# A549 = assay: Cytotoxicity against Homo sapiens (human) A549 cells after 48 hr by sulforhodamine B assay; settings: A549, 48 h; for CC50: read-out: LC50 (the source's name)
# MOLT-4 = assay: Cytotoxicity against Homo sapiens (human) MOLT4 cells after 48 hr by sulforhodamine B assay; settings: MOLT-4, 48 h; for CC50: read-out: LC50 (the source's name)
# K562 = assay: Cytotoxicity against Homo sapiens (human) K562 cells after 48 hr by sulforhodamine B assay; settings: K562, 48 h; for CC50: read-out: LC50 (the source's name)
# SF-268 = assay: Cytotoxicity against Homo sapiens (human) SF268 cells assessed as cell growth at 10^-4 M after 48 hr by […] assay; settings: SF-268, 48 h, read-out: Activity
# RXF 393 = assay: Cytotoxicity against Homo sapiens (human) RXF393 cells after 48 hr by sulforhodamine B assay; settings: RXF 393, 48 h
smiles,measurement,setting,value
Nc1nc(Cl)c2ncn(Cc3cccc(CCl)c3)c2n1,GI50,OVCAR-4,1.95 µM
same,LC50 (concentration killing 50% of cells),OVCAR-4,9.54 µM
same,TGI,OVCAR-4,4.26 µM
same,GI50,IGROV-1,3.46 µM
same,LC50,IGROV-1,55 µM
same,TGI,IGROV-1,12.9 µM
same,GI50,OVCAR-3,0.72 µM
same,LC50,OVCAR-3,5.49 µM
same,TGI,OVCAR-3,2.29 µM
same,GI50,UACC-62,2.09 µM
same,LC50 (concentration causing 50% net cell kill),UACC-62,13.5 µM
same,TGI,UACC-62,4.78 µM
same,GI50,UACC-257,5.75 µM
same,LC50 (concentration killing 50% of cells),UACC-257,49 µM
same,TGI,UACC-257,19.5 µM
same,GI50,SK-MEL-5,11 µM
same,LC50,SK-MEL-5,51.3 µM
same,TGI,SK-MEL-5,23.4 µM
same,GI50,SK-MEL-2,10.7 µM
same,LC50 (concentration killing 50% of cells),SK-MEL-2,> 100 µM
same,TGI,SK-MEL-2,66.1 µM
same,GI50,U-251,1.82 µM
same,LC50 (concentration killing 50% of cells),U-251,9.33 µM
same,TGI,U-251,4.07 µM
same,GI50,SF-539,4.67 µM
same,LC50 (concentration killing 50% of cells),SF-539,69.2 µM
same,TGI,SF-539,20.4 µM
same,GI50,MDA-MB-435,3.81 µM
same,LC50,MDA-MB-435,85.1 µM
same,TGI,MDA-MB-435,22.4 µM
same,GI50,[1],4.89 µM
same,LC50 (concentration killing 50% of cells),[1],75.9 µM
same,TGI,[1],19.9 µM
same,GI50,MDA-MB-231,12 µM
same,LC50,MDA-MB-231,69.2 µM
same,TGI,MDA-MB-231,28.8 µM
same,GI50,PC-3,9.77 µM
same,LC50 (concentration causing 50% cell kill),PC-3,63.1 µM
same,TGI,PC-3,25.1 µM
same,GI50,SN12C,4.46 µM
same,LC50 (50% lethal concentration),SN12C,39.8 µM
same,TGI,SN12C,15.5 µM
same,GI50,CAKI-1,0.24 µM
same,TGI,CAKI-1,1.51 µM
same,CC50,CAKI-1,15.8 µM
same,GI50,KM12,3.31 µM
same,TGI,KM12,13.2 µM
same,CC50,KM12,37.1 µM
same,GI50,HT-29,2.51 µM
same,TGI,HT-29,9.77 µM
same,CC50,HT-29,64.6 µM
same,GI50,HCT-116,1.99 µM
same,TGI,HCT-116,3.89 µM
same,CC50,HCT-116,75.9 µM
same,GI50,HCC 2998,3.02 µM
same,TGI,HCC 2998,4.89 µM
same,CC50,HCC 2998,77.6 µM
same,GI50,COLO 205,6.76 µM
same,TGI,COLO 205,27.5 µM
same,CC50,COLO 205,97.7 µM
same,GI50,NCI-H522,3.31 µM
same,TGI,NCI-H522,13.5 µM
same,CC50,NCI-H522,81.3 µM
same,GI50,NCI-H322M,10.5 µM
same,TGI,NCI-H322M,22.4 µM
same,CC50,NCI-H322M,46.8 µM
same,GI50,NCI-H23,2.04 µM
same,TGI,NCI-H23,5.01 µM
same,CC50,NCI-H23,26.9 µM
same,GI50,NCI-H226,10.7 µM
same,TGI,NCI-H226,42.6 µM
same,CC50,NCI-H226,> 100 µM
same,GI50,HOP-62,5.75 µM
same,TGI,HOP-62,20.4 µM
same,CC50,HOP-62,58.9 µM
same,GI50,EKVX,21.4 µM
same,TGI,EKVX,36.3 µM
same,CC50,EKVX,60.2 µM
same,GI50,A549,12.3 µM
same,TGI,A549,27.5 µM
same,CC50,A549,63.1 µM
same,GI50,MOLT-4,4.78 µM
same,TGI,MOLT-4,> 100 µM
same,CC50,MOLT-4,> 100 µM
same,GI50,K562,4.36 µM
same,TGI,K562,> 100 µM
same,CC50,K562,> 100 µM
same,growth at 100 µM,SF-268,0%
ClCc1cccc(Cn2cnc3c(Cl)ncnc32)c1,GI50,OVCAR-4,2.34 µM
same,LC50 (concentration killing 50% of cells),OVCAR-4,26.3 µM
same,TGI,OVCAR-4,5.75 µM
same,GI50,IGROV-1,9.33 µM
same,LC50,IGROV-1,> 100 µM
same,TGI,IGROV-1,33.9 µM
same,GI50,OVCAR-3,1.62 µM
same,LC50,OVCAR-3,5.75 µM
same,TGI,OVCAR-3,3.02 µM
same,GI50,UACC-62,1.82 µM
same,LC50 (concentration causing 50% net cell kill),UACC-62,6.31 µM
same,TGI,UACC-62,3.38 µM
same,GI50,UACC-257,20.4 µM
same,LC50 (concentration killing 50% of cells),UACC-257,67.6 µM
same,TGI,UACC-257,37.1 µM
same,GI50,SK-MEL-5,2.29 µM
same,LC50,SK-MEL-5,24.6 µM
same,TGI,SK-MEL-5,6.31 µM
same,GI50,SK-MEL-2,21.9 µM
same,LC50 (concentration killing 50% of cells),SK-MEL-2,> 100 µM
same,TGI,SK-MEL-2,51.3 µM
same,GI50,U-251,1.82 µM
same,LC50 (concentration killing 50% of cells),U-251,6.76 µM
same,TGI,U-251,3.46 µM
same,GI50,SF-539,19.9 µM
same,LC50 (concentration killing 50% of cells),SF-539,61.7 µM
same,TGI,SF-539,35.5 µM
same,GI50,MDA-MB-435,1.69 µM
same,LC50,MDA-MB-435,6.45 µM
same,TGI,MDA-MB-435,3.31 µM
same,GI50,[1],2.45 µM
same,LC50 (concentration killing 50% of cells),[1],37.1 µM
same,TGI,[1],7.58 µM
same,GI50,MDA-MB-231,1.99 µM
same,LC50,MDA-MB-231,8.12 µM
same,TGI,MDA-MB-231,4.07 µM
same,GI50,PC-3,4.16 µM
same,LC50 (concentration causing 50% cell kill),PC-3,67.6 µM
same,TGI,PC-3,18.2 µM
same,GI50,SN12C,2.34 µM
same,LC50 (50% lethal concentration),SN12C,14.5 µM
same,TGI,SN12C,5.12 µM
same,GI50,RXF 393,2.29 µM
same,TGI,RXF 393,24 µM
same,CC50,RXF 393; read-out: LC50 (the source's name),70.8 µM
same,GI50,CAKI-1,1.54 µM
same,TGI,CAKI-1,2.95 µM
same,CC50,CAKI-1,5.62 µM
same,GI50,KM12,3.46 µM
same,TGI,KM12,13.5 µM
same,CC50,KM12,3.98 µM
same,GI50,HT-29,3.23 µM
same,TGI,HT-29,> 100 µM
same,CC50,HT-29,> 100 µM
same,GI50,HCT-116,1.47 µM
same,TGI,HCT-116,3.09 µM
same,CC50,HCT-116,6.31 µM
same,GI50,HCC 2998,0.4 µM
same,TGI,HCC 2998,1.73 µM
same,CC50,HCC 2998,5.49 µM
same,GI50,COLO 205,3.09 µM
same,TGI,COLO 205,10.5 µM
same,CC50,COLO 205,74.1 µM
same,GI50,NCI-H522,18.6 µM
same,TGI,NCI-H522,66.1 µM
same,CC50,NCI-H522,> 100 µM
same,GI50,NCI-H322M,1.9 µM
same,TGI,NCI-H322M,3.46 µM
same,CC50,NCI-H322M,6.45 µM
same,GI50,NCI-H23,1.9 µM
same,TGI,NCI-H23,4.07 µM
same,CC50,NCI-H23,8.71 µM
same,GI50,NCI-H226,2.13 µM
same,TGI,NCI-H226,14.4 µM
same,CC50,NCI-H226,8.91 µM
same,GI50,HOP-62,2.63 µM
same,TGI,HOP-62,5.12 µM
same,CC50,HOP-62,10.2 µM
same,GI50,EKVX,18.6 µM
same,TGI,EKVX,33.9 µM
same,CC50,EKVX,63.1 µM
same,GI50,A549,19.5 µM
same,TGI,A549,39.8 µM
same,CC50,A549,79.4 µM
same,GI50,MOLT-4,15.8 µM
same,TGI,MOLT-4,37.1 µM
same,CC50,MOLT-4,89.1 µM
same,GI50,K562,3.54 µM
same,TGI,K562,15.1 µM
same,CC50,K562,75.9 µM
